# Measured values reported in patent publication US7297700B2, “Bicycloheteroaryl compounds as P2X7 modulators and uses thereof” (Renovis, Inc., priority 2005, dated 2007).
# Tested on: IL-1β release from THP-1 cells
# Assay: IL-1β Release Assay (Alternate Method), THP-1 cells
# Format: cell-based, human
# Conditions: Homo sapiens; at 0.3 μM; THP-1 cells; read-out: IL-1β % inhibition
# Method in brief: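 THP-1 cells differentiated 16 h with 100 ng/mL LPS plus 100 ng/mL IFN-γ, reprimed 2 h with 100 ng/mL LPS, pretreated 30 min with compound, then challenged 45 min with 250 uM BzATP (final). Supernatant IL-1β quantified by ELISA; percent inhibition from background-adjusted levels versus untreated cells.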
row,SMILES,inhibition at 0.3 µM
1,O=C(c1ccccc1)N1CCc2c(ncnc2NC(=O)C23CC4CC(CC(C4)C2)C3)C1 [Compound 394],25 to 50%

# Same assay, conditions: at 0.3 μM; THP-1 cells
row,SMILES,IL-1β % inhibition
1,CC(CC(=O)N1CCc2c(ncnc2NC(=O)CC23CC4CC(CC(C4)C2)C3)C1)CC(C)(C)C (stereo not drawn) [Compound 235],++++ (compound exhibited 75% or greater inhibition at 0.3 μM)
2,COc1ccc(CN2CCc3c(ncnc3C(=O)NCC3CCCCC3)C2)cc1 [Compound 54],+ (compound exhibited 0-25% inhibition at 0.3 μM)
3,COc1ccc(Oc2ccc(S(=O)(=O)N3CCc4c(ncnc4NC(=O)CC45CC6CC(CC(C6)C4)C5)C3)cc2)cc1 [Compound 175],+++ (compound exhibited 50-75% inhibition at 0.3 μM)
4,O=C(CC1CCCCCC1)Nc1ncnc2c1CCN(Cc1ccccn1)C2 [Compound 94],+ (compound exhibited 0-25% inhibition at 0.3 μM)
5,O=C(CC12CC3CC(CC(C3)C1)C2)Nc1ncnc2c1CCN(S(=O)(=O)c1ccc(F)cc1F)C2 [Compound 209],++++ (compound exhibited 75% or greater inhibition at 0.3 μM)
6,Cc1ccc(CN2CCc3c(ncnc3NC(=O)CC34CC5CC(CC(C5)C3)C4)C2)cc1F [Compound 85],+ (compound exhibited 0-25% inhibition at 0.3 μM)
7,O=C(CC12CC3CC(CC(C3)C1)C2)Nc1ncnc2c1CCN(S(=O)(=O)c1cc(Cl)ccc1F)C2 [Compound 205],+ (compound exhibited 0-25% inhibition at 0.3 μM)
8,Cc1cc(C(=O)N2CCc3c(ncnc3NC(=O)CC34CC5CC(CC(C5)C3)C4)C2)n(C(C)(C)C)n1 [Compound 300],+ (compound exhibited 0-25% inhibition at 0.3 μM)
9,CC12CC3CC(C)(C1)CC(CC(=O)Nc1ncnc4c1CCN(Cc1ccccc1Cl)C4)(C3)C2 [Compound 370],++ (compound exhibited 25-50% inhibition at 0.3 μM)
10,O=C(CC12CC3CC(CC(C3)C1)C2)Nc1ncnc2c1CCN(Cc1ccc(OC(F)F)cc1)C2 [Compound 78],+ (compound exhibited 0-25% inhibition at 0.3 μM)
11,CC(C)(C(=O)Nc1ncnc2c1CCN(Cc1ccc3cc[nH]c3c1)C2)C12CC3CC(CC(C3)C1)C2 [Compound 351],+ (compound exhibited 0-25% inhibition at 0.3 μM)
12,O=C(CC12CC3CC(CC(C3)C1)C2)Nc1ncnc2c1CCN(Cc1ccc(F)cc1Cl)C2 [Compound 326],++ (compound exhibited 25-50% inhibition at 0.3 μM)
13,Cc1nn(-c2ccccc2)nc1C(=O)N1CCc2c(ncnc2NC(=O)CC23CC4CC(CC(C4)C2)C3)C1 [Compound 273],++++ (compound exhibited 75% or greater inhibition at 0.3 μM)
14,Cc1ccc(CN2CCc3c(ncnc3NC(=O)CC34CC5CC(CC(C5)C3)C4)C2)c2ccccc12 [Compound 112],+ (compound exhibited 0-25% inhibition at 0.3 μM)
15,O=C(Cc1ccccc1)N1CCc2c(ncnc2NC(=O)C23CC4CC(CC(C4)C2)C3)C1 [Compound 398],+++ (compound exhibited 50-75% inhibition at 0.3 μM)
16,O=C(CC12CC3CC(CC(C3)C1)C2)Nc1ncnc2c1CCN(Cc1ccc(F)cc1F)C2 [Compound 47],++++ (compound exhibited 75% or greater inhibition at 0.3 μM)
17,O=C(NCC12CC3CC(CC(C3)C1)C2)c1ncnc2c1CCN(Cc1ccc3c(c1)OCO3)C2 [Compound 340],+++ (compound exhibited 50-75% inhibition at 0.3 μM)
18,N#Cc1cc(CN2CCc3c(ncnc3NC(=O)CC34CC5CC(CC(C5)C3)C4)C2)ccc1F [Compound 84],+ (compound exhibited 0-25% inhibition at 0.3 μM)
19,CC(C)(C(=O)Nc1ncnc2c1CCN(C(=O)c1c(F)cccc1Cl)C2)C12CC3CC(CC(C3)C1)C2 [Compound 362],+ (compound exhibited 0-25% inhibition at 0.3 μM)
20,CCN1CCc2c(ncnc2NC(=O)CC2CCCCC2)C1 [Compound 20],+ (compound exhibited 0-25% inhibition at 0.3 μM)
21,COc1cccc(CN2CCc3c(ncnc3C(=O)NCC34CC5CC(CC(C5)C3)C4)C2)c1 [Compound 335],++ (compound exhibited 25-50% inhibition at 0.3 μM)
22,CC(C)(C)CC(=O)N1CCc2c(ncnc2NC(=O)CC23CC4CC(CC(C4)C2)C3)C1 [Compound 262],+ (compound exhibited 0-25% inhibition at 0.3 μM)
23,CS(=O)(=O)c1ccc(CN2CCc3c(ncnc3NC(=O)CC34CC5CC(CC(C5)C3)C4)C2)cc1 [Compound 15],+ (compound exhibited 0-25% inhibition at 0.3 μM)
24,O=C(CC12CC3CC(CC(C3)C1)C2)Nc1ncnc2c1CCN(C(=O)c1cccc(Cl)c1Cl)C2 [Compound 282],++++ (compound exhibited 75% or greater inhibition at 0.3 μM)

# Same assay, conditions: at 0.3 μM; THP-1 cells, BzATP-stimulated
row,SMILES,IL-1β % inhibition
1,O=C(Nc1ncnc2c1CCN(S(=O)(=O)Cc1ccccc1)C2)C12CC3CC(CC(C3)C1)C2 [Compound 491],+ (compound exhibited 0-25% inhibition at 0.3 μM)
2,CCCS(=O)(=O)N1CCc2c(ncnc2NC(=O)C23CC4CC(CC(C4)C2)C3)C1 [Compound 485],+ (compound exhibited 0-25% inhibition at 0.3 μM)
3,COc1ccc(Oc2ccc(S(=O)(=O)N3CCc4c(ncnc4NC(=O)C45CC6CC(CC(C6)C4)C5)C3)cc2)cc1 [Compound 509],+++ (compound exhibited 50-75% inhibition at 0.3 μM)
4,O=C(Nc1ncnc2c1CCN(S(=O)(=O)c1ccccc1Cl)C2)C12CC3CC(CC(C3)C1)C2 [Compound 525],+ (compound exhibited 0-25% inhibition at 0.3 μM)
5,COc1cccc(S(=O)(=O)N2CCc3c(ncnc3NC(=O)C34CC5CC(CC(C5)C3)C4)C2)c1 [Compound 498],+ (compound exhibited 0-25% inhibition at 0.3 μM)
6,O=C(c1ccc(C(F)(F)F)cc1F)N1CCc2c(ncnc2NC(=O)C23CC4CC(CC(C4)C2)C3)C1 [Compound 438],++ (compound exhibited 25-50% inhibition at 0.3 μM)
7,O=C(Nc1ncnc2c1CCN(Cc1ccc(Br)cc1)C2)C12CC3CC(CC(C3)C1)C2 [Compound 597],+++ (compound exhibited 50-75% inhibition at 0.3 μM)
8,O=C(c1c(F)cccc1Cl)N1CCc2c(ncnc2NC(=O)C23CC4CC(CC(C4)C2)C3)C1 [Compound 444],+ (compound exhibited 0-25% inhibition at 0.3 μM)
9,O=C(Nc1ncnc2c1CCN(Cc1cccnc1)C2)C12CC3CC(CC(C3)C1)C2 [Compound 560],++ (compound exhibited 25-50% inhibition at 0.3 μM)
10,Cc1cccc(CN2CCc3c(ncnc3NC(=O)C34CC5CC(CC(C5)C3)C4)C2)c1 [Compound 606],+ (compound exhibited 0-25% inhibition at 0.3 μM)
11,O=C(c1ccc(Cl)cc1Cl)N1CCc2c(ncnc2NC(=O)C23CC4CC(CC(C4)C2)C3)C1 [Compound 430],++ (compound exhibited 25-50% inhibition at 0.3 μM)
